{"source": "paper PMC9688798", "about": "“Dual-Wavelength Fluorescence Polarization Immunoassay for Simultaneous Detection of Sulfonamides and Antibacterial Synergists in Milk” (Biosensors, 2022)", "key": {"[1]": {"system": "mAb 10E6", "experiment": "DWFPIA for SAs (tracer SADMPM-HDF, λex 480 nm/λem 535 nm)", "format": "binding", "details": "for IC50: 480 nm/535 nm", "experimental": "(§1) For single format FPIA, 70 μL/well of a standard analyte solution, 70 μL/well of tracer, and 70 μL/well mAb were added to the 96-well low-adsorption microplate. After incubation for 2 min in the dark, FP values were measured at λex 480 nm and λem 535 nm for the SAs tracers (SADMPM-EDF, SADMPM-BDF, and SADMPM-HDF) or at λex 620 nm and λem 688 nm for the ASGs tracers (HaptenA-DSCA, HaptenA-DSCH, and HaptenA-AF647). For DWFPIA detection, 70 μL/well standard cocktail solutions were mixed with 70 μL/well of tracer cocktail solutions in the working dilution and 70 μL/well of mAb cocktail solutions in the working dilution. After incubation for 2 min in the dark, the corresponding signals of the tracers were collected simultaneously.\n(§2) The procedure to develop the standard curves of DWFPIA for the simultaneous detection of SMZ and TMP was follows: the standard cocktail solutions were prepared by mixing an equal quantity of the standard of SMZ and TMP. Subsequently, the optimum two tracers for each mAbs were added with equal volumes, and then mixed with the two mAbs against SMZ and TMP. The other steps followed the above protocol for FPIA. […] Y = (A − D)/[1 + (X/C) ^B] + D(1) where Y represents the FP value for the corresponding different concentrations of the standard (analyte); A and D represent the asymptotic maximum and minimum of the FP values, respectively; and B is the slope of the curve at the inflection point. C is the IC50 value that defines the standard concentration of SMZ or TMP (analyte) at 50% tracer binding, and X is SMZ/TMP in various concentrations. Furthermore, IC20–IC80 was calculated as the detectable range of the DWFPIA. According to the following equation, the cross reactivity (CR) of the DWFPIA was acquired as follows:CR= (IC50 of SMZ or TMP)/(IC50 of analyte compound) × 100%(2)\n(§3) To obtain a sensitive FPIA, the effects of some physicochemical conditions on DWFPIA were evaluated by comparing the δmP/IC50 ratios under various conditions, including pH and organic solvents. Based on the optimal antibody–tracer pairs, pH values of 6.0, 7.0, 8.0, and 9.0 were tested and the other parameters of the assay remain unchanged. To clarify the effects of organic solvents on the development of DWFPIA, various concentrations of methanol and acetonitrile were tested, that is, 0%, 2.5%, 5%, 10%, 20%, and 30% (v/v) for methanol and 0%, 2.5%, 5%, 10%, and 20% (v/v) for acetonitrile. SMZ and TMP were used as the reference analyte in DWFPIA optimization to construct standard curves, seperately."}, "[2]": {"system": "mAb 10E6", "experiment": "FPIA tracer-antibody binding, antibody dilution and SMZ competition with mAb 10E6", "details": "λex/λem 480/535 nm, working concentration", "experimental": "as §1, with “After incubation for 2 min in the dark, the corresponding signals of the tracers were collected simultaneously.” left out\nIn DWFPIA, we mainly focused on three analytical parameters to select the optimum antibody–tracer pairs, including the half-maximal inhibitory concentration (IC50), the detection window (δmP = mPmax − mPmin), and the titer of the mAbs. […] The IC50 of DWFPIA based on the antibody–tracer pairs was assessed according to standard curves, as described in Section 2.3.3. δmP was the difference between the observed maximum FP value of the tracer bound to a saturating amount of antibody (mPmax) and the observed minimum FP value of the free tracer (mPmin). […] In addition, the binding abilities of the tracers and mAbs were assessed. […] According to the antibody dilution curve, the titer of the mAbs utilized for each tracer that satisfied the δmP criterion was calculated. […]"}, "[3]": {"system": "cocktail mAbs of 10E6 and 9C9", "experiment": "Nonspecific binding analysis with cocktail mAbs", "details": "λex/λem 480/535 nm, working concentration", "experimental": "The detection system of DWFPIA consists of two distinct fluorescence signals; moreover, the interference between the short-wavelength fluorescein (EDF/BDF/HDF) and the long-wavelength fluorescein (DSCA/DSCH/AF647) could be ignored, according to our previous studies. Furthermore, the nonspecific binding was analyzed by comparing the FP changes of each tracer (or the tracer cocktail) upon the addition of the free, specific, non-specific, and cocktail mAbs at working concentrations. […] At 620 nm/688 nm, the binding of the tracer HaptenA-DSCA and its corresponding antibody mAb 9C9 was not affected by the presence of non-specific mAb 10E6, as shown in Figure 3A."}, "[4]": {"system": "mAb 9C9", "experiment": "DWFPIA for ASGs (tracer HaptenA-DSCA, λex 620 nm/λem 688 nm)", "format": "binding", "experimental": "as §1, §2, §3"}, "[5]": {"details": "final concentration of 10% acetonitrile"}}, "data": [{"molecule": "Cc1cc(C)nc(NS(=O)(=O)c2ccc(N)cc2)n1", "note": "[SMZ, Sulfamethazine]", "values": [{"measurement": "δmP", "setting": "[1]; 10% final acetonitrile concentration", "result": "< 80", "unit": "mP"}, {"measurement": "IC50", "setting": "[1]; analyte in mixed format (standard cocktail)", "result": 4.67, "unit": "ng/mL"}, {"measurement": "IC50", "setting": "[1]; analyte in single format, tracer and mAb cocktail", "result": 4.55, "unit": "ng/mL"}, {"measurement": "CRs", "setting": "[1]; cross reactivity = IC50 of SMZ / IC50 of analyte × 100%", "result": 100, "unit": "%"}]}, {"molecule": "Cc1nc(NS(=O)(=O)c2ccc(N)cc2)nc(C)c1CCCCC(=O)NCCCCCCNC(=S)Nc1ccc2c(c1)C(=O)OC21c2ccc(O)cc2Oc2cc(O)ccc21", "note": "[SADMPM-HDF]", "values": [{"measurement": "Fluorescence Polarization, tracer and mAb 10E6", "setting": "[2]", "result": 178.6, "unit": "mP"}, {"measurement": "Fluorescence Polarization, tracer and cocktail mAbs", "setting": "[3]", "result": 178.8, "unit": "mP"}]}, {"molecule": "COc1cc(Cc2cnc(N)nc2N)cc(OC)c1OC", "note": "[TMP, Trimethoprim]", "values": [{"measurement": "IC50", "setting": "[4]; analyte in mixed format (standard cocktail), 620 nm/688 nm", "result": 1.12, "unit": "ng/mL"}, {"measurement": "IC50", "setting": "[4]; analyte in single format, tracer and mAb cocktail, 620 nm/688 nm", "result": 1.06, "unit": "ng/mL"}, {"measurement": "CRs", "setting": "[4]; cross reactivity = IC50 of TMP / IC50 of analyte × 100%", "result": 100, "unit": "%"}, {"measurement": "IC50", "setting": "[4]; [5]", "result": 1.7, "unit": "ng/mL"}, {"measurement": "δmP", "setting": "[4]; [5]", "result": "greater than 80 mP"}, {"measurement": "IC50", "setting": "[4]; without acetonitrile (start of the change)", "result": 1.1, "unit": "ng/mL"}]}]}
